# System: 885512-296-R-J2-PDC complex spheroid viability
# Test: Anticancer human tumor 885512-296-R-J2-PDC patient-derived breast carcinoma cell line growth inhibition
# Details: for IC50: curve of first compound; for viability, T/C: stronger effect = lower value
# Outline: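 Drug combinations with the LSD1 inhibitor iadademstat tested on tumor cells co-cultured as spheroids with endothelial cells and mesenchymal stem cells. Concentrations descended in half-log increments from clinical Cmax or 10 microM.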
# [1] = second compound 0.1 µM, first compound 0.0316 µM
# [2] = second compound 0.1 µM, first compound 0.1 µM
# [3] = second compound 0.1 µM, first compound 0.316 µM
# [4] = second compound 0.1 µM, first compound 1 µM
# [5] = second compound 0.1 µM, first compound 3.16 µM
# [6] = second compound 0.1 µM, first compound 10 µM
# [7] = second compound 0.316 µM, first compound 0.0316 µM
# [8] = second compound 0.316 µM, first compound 0.1 µM
# [9] = second compound 0.316 µM, first compound 0.316 µM
# [10] = second compound 0.316 µM, first compound 1 µM
# [11] = second compound 0.316 µM, first compound 3.16 µM
# [12] = second compound 0.316 µM, first compound 10 µM
# [13] = second compound 1 µM, first compound 0.0316 µM
# [14] = second compound 1 µM, first compound 0.1 µM
# [15] = second compound 1 µM, first compound 0.316 µM
# [16] = second compound 1 µM, first compound 1 µM
# [17] = second compound 1 µM, first compound 3.16 µM
# [18] = second compound 1 µM, first compound 10 µM
# [19] = second compound 3.16 µM, first compound 0.0316 µM
# [20] = second compound 3.16 µM, first compound 0.1 µM
# [21] = second compound 3.16 µM, first compound 0.316 µM
# [22] = second compound 3.16 µM, first compound 1 µM
# [23] = second compound 3.16 µM, first compound 3.16 µM
# [24] = second compound 3.16 µM, first compound 10 µM
# [25] = second compound 10 µM, first compound 0.0316 µM
# [26] = second compound 10 µM, first compound 0.1 µM
# [27] = second compound 10 µM, first compound 0.316 µM
# [28] = second compound 10 µM, first compound 1 µM
# [29] = second compound 10 µM, first compound 3.16 µM
# [30] = second compound 10 µM, first compound 10 µM
# [31] = second compound 0.1 µM, first compound 0.00949 µM
# [32] = second compound 0.1 µM, first compound 0.03 µM
# [33] = second compound 0.1 µM, first compound 0.0949 µM
# [34] = second compound 0.1 µM, first compound 0.3 µM
# [35] = second compound 0.316 µM, first compound 0.00949 µM
# [36] = second compound 0.316 µM, first compound 0.03 µM
# [37] = second compound 0.316 µM, first compound 0.0949 µM
# [38] = second compound 0.316 µM, first compound 0.3 µM
# [39] = second compound 1 µM, first compound 0.00949 µM
# [40] = second compound 1 µM, first compound 0.03 µM
# [41] = second compound 1 µM, first compound 0.0949 µM
# [42] = second compound 1 µM, first compound 0.3 µM
# [43] = second compound 3.16 µM, first compound 0.00949 µM
# [44] = second compound 3.16 µM, first compound 0.03 µM
# [45] = second compound 3.16 µM, first compound 0.0949 µM
# [46] = second compound 3.16 µM, first compound 0.3 µM
# [47] = second compound 10 µM, first compound 0.00949 µM
# [48] = second compound 10 µM, first compound 0.03 µM
# [49] = second compound 10 µM, first compound 0.0949 µM
# [50] = second compound 10 µM, first compound 0.3 µM
# 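Further: spheroids exposed to agents for 7 days before viability read.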
compound,measurement,setting,value
CC1(C)CCC(CN2CCN(c3ccc(C(=O)NS(=O)(=O)c4ccc(NCC5CCOCC5)c([N+](=O)[O-])c4)c(Oc4cnc5[nH]ccc5c4)c3)CC2)=C(c2ccc(Cl)cc2)C1 + NC1CC1c1ccc(-c2cccc(O)c2)cc1,IC50,second compound 0.1 µM,1780 nM
same,IC50,second compound 0.316 µM,1820 nM
same,IC50,second compound 1 µM,1850 nM
same,IC50,second compound 3.16 µM,1530 nM
same,IC50,second compound 10 µM,994 nM
same,"viability, T/C",[1],118%
same,"viability, T/C",[2],111%
same,"viability, T/C",[3],105%
same,"viability, T/C",[4],76.4%
same,"viability, T/C",[5],23.9%
same,"viability, T/C",[6],0.12%
same,"viability, T/C",[7],122%
same,"viability, T/C",[8],112%
same,"viability, T/C",[9],105%
same,"viability, T/C",[10],82.3%
same,"viability, T/C",[11],20.8%
same,"viability, T/C",[12],0.11%
same,"viability, T/C",[13],115%
same,"viability, T/C",[14],116%
same,"viability, T/C",[15],105%
same,"viability, T/C",[16],79.9%
same,"viability, T/C",[17],24.4%
same,"viability, T/C",[18],0.22%
same,"viability, T/C",[19],103%
same,"viability, T/C",[20],103%
same,"viability, T/C",[21],101%
same,"viability, T/C",[22],68.4%
same,"viability, T/C",[23],17.6%
same,"viability, T/C",[24],0.11%
same,"viability, T/C",[25],83.1%
same,"viability, T/C",[26],78.8%
same,"viability, T/C",[27],70.5%
same,"viability, T/C",[28],52.1%
same,"viability, T/C",[29],12.4%
same,"viability, T/C",[30],0.15%
CC1COCCN1c1cc(C2(S(C)(=N)=O)CC2)nc(-c2ccnc3[nH]ccc23)n1 (stereo not given) + NC1CC1c1ccc(-c2cccc(O)c2)cc1,IC50,second compound 0.1 µM,501 nM
same,IC50,second compound 0.316 µM,466 nM
same,IC50,second compound 1 µM,338 nM
same,IC50,second compound 3.16 µM,412 nM
same,IC50,second compound 10 µM,216 nM
same,"viability, T/C",[1],110%
same,"viability, T/C",[2],116%
same,"viability, T/C",[3],76.1%
same,"viability, T/C",[4],11.1%
same,"viability, T/C",[5],3.64%
same,"viability, T/C",[6],2.7%
same,"viability, T/C",[7],139%
same,"viability, T/C",[8],112%
same,"viability, T/C",[9],72.3%
same,"viability, T/C",[10],10.7%
same,"viability, T/C",[11],3.33%
same,"viability, T/C",[12],2.63%
same,"viability, T/C",[13],118%
same,"viability, T/C",[14],113%
same,"viability, T/C",[15],52.3%
same,"viability, T/C",[16],8.24%
same,"viability, T/C",[17],3.25%
same,"viability, T/C",[18],2.72%
same,"viability, T/C",[19],114%
same,"viability, T/C",[20],101%
same,"viability, T/C",[21],63.1%
same,"viability, T/C",[22],9.16%
same,"viability, T/C",[23],3.38%
same,"viability, T/C",[24],2.43%
same,"viability, T/C",[25],79.9%
same,"viability, T/C",[26],76.5%
same,"viability, T/C",[27],37%
same,"viability, T/C",[28],8.1%
same,"viability, T/C",[29],3.13%
same,"viability, T/C",[30],2.67%
CCN(c1cc(-c2ccc(CN3CCOCC3)cc2)cc(C(=O)NCc2c(C)cc(C)[nH]c2=O)c1C)C1CCOCC1 + NC1CC1c1ccc(-c2cccc(O)c2)cc1,IC50,second compound 0.1 µM,158 nM
same,IC50,second compound 0.316 µM,165 nM
same,IC50,second compound 1 µM,151 nM
same,IC50,second compound 3.16 µM,153 nM
same,IC50,second compound 10 µM,93.1 nM
same,"viability, T/C",[31],106%
same,"viability, T/C",[32],108%
same,"viability, T/C",[33],67.2%
same,"viability, T/C",[34],26.9%
same,"viability, T/C","second compound 0.1 µM, first compound 0.949 µM",19.2%
same,"viability, T/C","second compound 0.1 µM, first compound 3 µM",7.41%
same,"viability, T/C",[35],120%
same,"viability, T/C",[36],103%
same,"viability, T/C",[37],65.8%
same,"viability, T/C",[38],31.9%
same,"viability, T/C","second compound 0.316 µM, first compound 0.949 µM",16.2%
same,"viability, T/C","second compound 0.316 µM, first compound 3 µM",7.17%
same,"viability, T/C",[39],120%
same,"viability, T/C",[40],105%
same,"viability, T/C",[41],60.6%
same,"viability, T/C",[42],31.1%
same,"viability, T/C","second compound 1 µM, first compound 0.949 µM",16.7%
same,"viability, T/C","second compound 1 µM, first compound 3 µM",6.44%
same,"viability, T/C",[43],100%
same,"viability, T/C",[44],86.6%
same,"viability, T/C",[45],63.2%
same,"viability, T/C",[46],31.6%
same,"viability, T/C","second compound 3.16 µM, first compound 0.949 µM",16.8%
same,"viability, T/C","second compound 3.16 µM, first compound 3 µM",7.23%
same,"viability, T/C",[47],84%
same,"viability, T/C",[48],78.7%
same,"viability, T/C",[49],48.2%
same,"viability, T/C",[50],21.1%
same,"viability, T/C","second compound 10 µM, first compound 0.949 µM",12.8%
same,"viability, T/C","second compound 10 µM, first compound 3 µM",6.35%
Cn1ncnc1C1c2n[nH]c(=O)c3cc(F)cc(c23)NC1c1ccc(F)cc1 (stereo not given) + NC1CC1c1ccc(-c2cccc(O)c2)cc1,IC50,second compound 0.1 µM,55.1 nM
same,IC50,second compound 0.316 µM,51 nM
same,IC50,second compound 1 µM,41 nM
same,IC50,second compound 3.16 µM,28.1 nM
same,IC50,second compound 10 µM,15.5 nM
same,"viability, T/C","second compound 0.1 µM, first compound 0.000316 µM",138%
same,"viability, T/C","second compound 0.1 µM, first compound 0.001 µM",114%
same,"viability, T/C","second compound 0.1 µM, first compound 0.00316 µM",98.7%
same,"viability, T/C","second compound 0.1 µM, first compound 0.01 µM",86.2%
same,"viability, T/C",[1],63.6%
same,"viability, T/C",[2],35.8%
same,"viability, T/C","second compound 0.316 µM, first compound 0.000316 µM",112%
same,"viability, T/C","second compound 0.316 µM, first compound 0.001 µM",121%
same,"viability, T/C","second compound 0.316 µM, first compound 0.00316 µM",97%
same,"viability, T/C","second compound 0.316 µM, first compound 0.01 µM",89.2%
same,"viability, T/C",[7],64.3%
same,"viability, T/C",[8],30.3%
same,"viability, T/C","second compound 1 µM, first compound 0.000316 µM",118%
same,"viability, T/C","second compound 1 µM, first compound 0.001 µM",114%
same,"viability, T/C","second compound 1 µM, first compound 0.00316 µM",101%
same,"viability, T/C","second compound 1 µM, first compound 0.01 µM",86.3%
same,"viability, T/C",[13],53.7%
same,"viability, T/C",[14],32.3%
same,"viability, T/C","second compound 3.16 µM, first compound 0.000316 µM",105%
same,"viability, T/C","second compound 3.16 µM, first compound 0.001 µM",110%
same,"viability, T/C","second compound 3.16 µM, first compound 0.00316 µM",94.2%
same,"viability, T/C","second compound 3.16 µM, first compound 0.01 µM",77.4%
same,"viability, T/C",[19],46.7%
same,"viability, T/C",[20],27.2%
same,"viability, T/C","second compound 10 µM, first compound 0.000316 µM",72.4%
same,"viability, T/C","second compound 10 µM, first compound 0.001 µM",80.2%
same,"viability, T/C","second compound 10 µM, first compound 0.00316 µM",70.5%
same,"viability, T/C","second compound 10 µM, first compound 0.01 µM",55.5%
same,"viability, T/C",[25],39.1%
same,"viability, T/C",[26],20.5%
Nc1ncn(C2CC(O)C(CO)S2)c(=O)n1 (stereo not given) + NC1CC1c1ccc(-c2cccc(O)c2)cc1,IC50,second compound 0.1 µM,4.6 nM
same,IC50,second compound 0.316 µM,4.26 nM
same,IC50,second compound 1 µM,4.39 nM
same,IC50,second compound 3.16 µM,2.81 nM
same,IC50,second compound 10 µM,0.989 nM
same,"viability, T/C","second compound 0.1 µM, first compound 0.000949 µM",91.2%
same,"viability, T/C","second compound 0.1 µM, first compound 0.003 µM",62%
same,"viability, T/C",[31],29.4%
same,"viability, T/C",[32],15.9%
same,"viability, T/C",[33],8.39%
same,"viability, T/C",[34],4.32%
same,"viability, T/C","second compound 0.316 µM, first compound 0.000949 µM",84.1%
same,"viability, T/C","second compound 0.316 µM, first compound 0.003 µM",60.6%
same,"viability, T/C",[35],26.1%
same,"viability, T/C",[36],14.8%
same,"viability, T/C",[37],8.48%
same,"viability, T/C",[38],4.51%
same,"viability, T/C","second compound 1 µM, first compound 0.000949 µM",75%
same,"viability, T/C","second compound 1 µM, first compound 0.003 µM",60.4%
same,"viability, T/C",[39],29.5%
same,"viability, T/C",[40],13.8%
same,"viability, T/C",[41],7.96%
same,"viability, T/C",[42],4.21%
same,"viability, T/C","second compound 3.16 µM, first compound 0.000949 µM",61.6%
same,"viability, T/C","second compound 3.16 µM, first compound 0.003 µM",50.2%
same,"viability, T/C",[43],25.9%
same,"viability, T/C",[44],12.9%
same,"viability, T/C",[45],6.26%
same,"viability, T/C",[46],4.09%
same,"viability, T/C","second compound 10 µM, first compound 0.000949 µM",50.1%
same,"viability, T/C","second compound 10 µM, first compound 0.003 µM",39.8%
same,"viability, T/C",[47],17.2%
same,"viability, T/C",[48],9.45%
same,"viability, T/C",[49],5.85%
same,"viability, T/C",[50],3.58%
